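Method: 48-hour compound exposure of cells in 96-well plates, five concentrations, linear interpolation of endpoints. GI50 is the concentration that inhibits growth by half.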 Activity calls are given as the source filed them. No stated cut-off is given here; in the data, active = GI50 up to about 1.1 µM and inactive = higher.
What was measured:
Test in all cases: DTP human tumour cell line panel, 48 h
MDA-MB-231 = tested on: MDA-MB-231
KM12 = tested on: KM12
MCF7 = tested on: MCF7
NCI/ADR-RES = tested on: NCI/ADR-RES
OVCAR-4 = tested on: OVCAR-4
SNB-75 = tested on: SNB-75
BT-549 = tested on: BT-549
SW-620 = tested on: SW-620
COLO 205 = tested on: COLO 205
RXF 393 = tested on: RXF 393
OVCAR-5 = tested on: OVCAR-5
HCT-116 = tested on: HCT-116
HCC 2998 = tested on: HCC 2998
UO-31 = tested on: UO-31
HL-60 = tested on: HL-60
HOP-92 = tested on: HOP-92
OVCAR-3 = tested on: OVCAR-3
NCI-H23 = tested on: NCI-H23
DU-145 = tested on: DU-145
UACC-257 = tested on: UACC-257

Measured: GI50

OC1(c2cccs2)c2cccc(Cl)c2C(O)(c2cccs2)c2c(Cl)cccc21 (stereo not given)
inactive: MDA-MB-231 18.5 µM | KM12 > 100 µM | MCF7 > 100 µM | NCI/ADR-RES 63.5 µM | OVCAR-4 > 100 µM | SNB-75 47.4 µM | BT-549 35.6 µM | SW-620 > 100 µM | COLO 205 > 100 µM | RXF 393 > 100 µM | OVCAR-5 > 100 µM | HCT-116 > 100 µM | HCC 2998 > 100 µM | UO-31 > 100 µM | HL-60 > 100 µM | HOP-92 93.1 µM | OVCAR-3 > 100 µM | NCI-H23 54.6 µM | DU-145 > 100 µM | UACC-257 > 100 µM

COC(=O)C1=C(C=O)C2C=CC1C2 (stereo not given)
inactive: MDA-MB-231 > 100 µM | KM12 > 100 µM | MCF7 > 100 µM | NCI/ADR-RES > 100 µM | OVCAR-4 > 82.8 µM | SNB-75 28.6 µM | BT-549 > 100 µM | SW-620 43.6 µM | COLO 205 46.3 µM | RXF 393 81.5 µM | OVCAR-5 > 100 µM | HCT-116 58.9 µM | HCC 2998 > 89.1 µM | UO-31 > 100 µM | HL-60 21.3 µM | HOP-92 > 100 µM | OVCAR-3 55.8 µM | NCI-H23 > 97.5 µM | DU-145 > 100 µM | UACC-257 47.9 µM

Cc1c(O)ccc2c(O)c(NC(=O)c3ccc4c(c3)CCC(C)(C)O4)c(=O)oc12 [CYCLONOVOBIOCIC ACID]
inactive: MDA-MB-231 > 100 µM | KM12 > 100 µM | MCF7 > 100 µM | NCI/ADR-RES > 100 µM | OVCAR-4 > 100 µM | SNB-75 > 100 µM | BT-549 > 100 µM | SW-620 > 100 µM | COLO 205 > 100 µM | RXF 393 > 100 µM | OVCAR-5 > 100 µM | HCT-116 > 100 µM | HCC 2998 > 100 µM | UO-31 > 100 µM | HL-60 > 100 µM | HOP-92 > 100 µM | OVCAR-3 > 100 µM | NCI-H23 > 100 µM | DU-145 > 100 µM | UACC-257 > 100 µM
